Reference: patent US20250101057A1, “SOLID FORMS” (Gilead Sciences, Inc., priority 2023, published 2025)

Assay: Dynamic Vapor Sorption (DVS) hygroscopicity
Assay type: physicochemical
Settings: for DVS (%): Table 6 summary of crystalline Forms I-V; for hygroscopicity by DVS analysis (in words): 0 to 90% RH at 25° C.; for DVS weight change: from 0 to 90% RH at 25° C.
Procedure: Dynamic Vapor Sorption (DVS) was used to study hygroscopicity on Model Q5000 SA (TA Instruments, New Castle, DE). A sample (1-10 mg) was placed in an aluminum pan and loaded on the sample side of the twin pan balance. The water sorption and desorption were studied as a function of relative humidity (RH) at 25° C. in 10% RH increments from 0% RH to 90% RH and then back to 0%. […] Data analysis was performed using Universal Analysis 2000 Version 4.7A (TA Instruments, New Castle, DE).

[1] = listed as Compound 1, crystalline Form II
[2] = listed as Compound 1, crystalline Form III
[3] = listed as Compound 1, crystalline Form IV
[4] = listed as Compound 1, crystalline Form V

C#C[C@]1(COC(=O)Cc2ccccc2)O[C@@H](n2cnc3c(N)nc(F)nc32)C[C@@H]1OC(=O)Cc1ccccc1 [Form I, (2R,3S,5R)-5-(6-amino-2-fluoro-9H-purin-9-yl)-2-ethynyl-2-((2-phenylacetoxy)methyl)tetrahydrofuran-3-yl 2-phenylacetate]
DVS (%) (listed as I): 0.85%

C#C[C@]1(COC(=O)Cc2ccccc2)O[C@@H](n2cnc3c(N)nc(F)nc32)C[C@@H]1OC(=O)Cc1ccccc1 [Form II, (2R,3S,5R)-5-(6-amino-2-fluoro-9H-purin-9-yl)-2-ethynyl-2-((2-phenylacetoxy)methyl)tetrahydrofuran-3-yl 2-phenylacetate]
hygroscopicity by DVS analysis (in words) [1]: non-hygroscopic
DVS (%) (listed as II): 0.08%
DVS weight change [1]: around 0.1%

C#C[C@]1(COC(=O)Cc2ccccc2)O[C@@H](n2cnc3c(N)nc(F)nc32)C[C@@H]1OC(=O)Cc1ccccc1 [Form III, (2R,3S,5R)-5-(6-amino-2-fluoro-9H-purin-9-yl)-2-ethynyl-2-((2-phenylacetoxy)methyl)tetrahydrofuran-3-yl 2-phenylacetate]
hygroscopicity by DVS analysis (in words) [2]: slightly hygroscopic
DVS (%) (listed as III): 1.2%
DVS weight change [2]: ~1.2%

C#C[C@]1(COC(=O)Cc2ccccc2)O[C@@H](n2cnc3c(N)nc(F)nc32)C[C@@H]1OC(=O)Cc1ccccc1 [Form IV, (2R,3S,5R)-5-(6-amino-2-fluoro-9H-purin-9-yl)-2-ethynyl-2-((2-phenylacetoxy)methyl)tetrahydrofuran-3-yl 2-phenylacetate]
hygroscopicity by DVS analysis (in words) [3]: non-hygroscopic
DVS (%) (listed as IV): 0.16%
DVS weight change [3]: ~0.16%

C#C[C@]1(COC(=O)Cc2ccccc2)O[C@@H](n2cnc3c(N)nc(F)nc32)C[C@@H]1OC(=O)Cc1ccccc1 [Form V, (2R,3S,5R)-5-(6-amino-2-fluoro-9H-purin-9-yl)-2-ethynyl-2-((2-phenylacetoxy)methyl)tetrahydrofuran-3-yl 2-phenylacetate]
hygroscopicity by DVS analysis (in words) [4]: non-hygroscopic
DVS (%) (listed as V): 0.10%
DVS weight change [4]: ~0.1%
